Experimental data: patent US11685741B2, “Fluorescent probes” (University of Massachusetts, priority 2017, dated 2023)

How the values were obtained:
[1] = Effect of pH on fluorescence of sensor and its Fe complex; type: physicochemical; conditions: pH adjusted with HCl/NaOH
[2] = Binding studies of sensor with Fe2+ (stoichiometry, affinity, reversibility); conditions: for binding constant: 1:1 sensor-Fe^2+ complex, H2O/THF pH 7.3 v/v 1:1
Procedure: The binding stoichiometry between the sensor Rh6GD and Fe^2+ was investigated by absorption and fluorescence titrations first. The sensor, Rh6GD has an absorption band at ˜420 nm (FIG. 26) which is due to the transition from S0 to S1 states (A. Chakraborty, et al., N. Chem. Phys., 2006, 324, 733) of the dimethylaminocinnamaldehyde moiety. […] Similar titrations were performed and were monitored by fluorescence spectroscopy.
The binding constant was estimated by using the absorption titration results. The equations below were used to calculate the binding constant for 2:1 complexes following a reported procedure (M. Guo, et al., Dalton Trans., 2007, 102, 4951). S+2L ? SL2 (1) The complex apparent binding constant is given by
[formula] Fc is the fraction of L that formed a complex; the subscripts e and o stand for equilibrium and initial concentrations, respectively. Au, Am, and Ac are the absorbances of solutions of L (before any Fe^2+ was added), during the titration, and at saturation, respectively. The concentration of free Fe^2+ at equilibrium, [S]e, is found with the following identity: [S]e=[S]o−[SL2]e[=S]o−Fc[L]o (4) Finally, the integrated apparent binding constant equation is shown in equation (5).
Reversibility experiments were carried out by adding the metal chelator EDTA to the Rh6GD-Fe^2+ complex in H2O/THF (pH 7.3, v/v 4:1). […]
Besides metal-selectivity, the binding constant, which describes the strength of binding between the sensor and metal cations, is also an important factor to be considered in bio-imaging. […] Job's method was applied to study the binding stoichiometry between Rh101D and Fe^2+ and monitored by the absorbance at 585 nm.
The binding constants were estimated by using the fluorescence titration results (FIG. 38). […]
The binding stoichiometry and the affinity between the sensor NIRh-Fret and Fe^2+ were investigated by UV-vis absorption titration. […] The binding constant for the formation of this complex was determined to be 2.9×10^6 M^−1 using a reported procedure (C. A. Perez, et al., J. Inorg. Biochem., 2009, 103, 326). […]

[3] = Solubility of sensor noted in NMR studies; type: physicochemical; conditions: NMR sample solution
Text: The binding site of Fe^2+ on Rh101D was investigated by 2D NMR. […] COSY NMR spectra are of sufficient resolution for the assignment of the peaks in the aromatic region (FIG. 44). After adding Fe^2+ to Rh101D, all the ^1H NMR signals were broadened.
In order to probe the binding site of Fe^2+ on the NIRh-Fret sensor, 1D and 2D ^1H NMR of the sensor NIRh-Fret was investigated first. […] The assignment of the ^1H NMR peaks was based on 2D ^1H-^1H COSY spectra.

CCN(CC)c1ccc2c(c1)Oc1cc(N(CC)CC)ccc1C21c2ccccc2C(=O)N1CC/N=C(\C)c1cccc(C(C)=O)n1 [Rh-PK, (E)-2-(2-((1-(6-acetylpyridin-2-yl)ethylidene)amino)ethyl)-3′,6′-bis(diethylamino)spiro[isoindoline-1,9′-xanthen]-3-one]
pH range over which sensor (and Fe complex) fluorescence is stable / working pH range [1]: 4 to 9 | pH range over which sensor (and Fe complex) fluorescence is stable / working pH range ([1]; listed as Rh-Pk): 4-9

CN(C)c1ccc(/C=C/C=N/N2C(=O)c3ccccc3C23c2cc4c5c(c2Oc2c3cc3c6c2CCCN6CCC3)CCCN5CCC4)cc1 [Rh101D]
binding constant [2]: 120000 M⁻¹ | solubility [3]: limited solubility | pH range over which sensor (and Fe complex) fluorescence is stable / working pH range [1]: 9.5 to 4.5

CCNc1cc2c(cc1C)C1(c3cc(C)c(NCC)cc3O2)c2ccccc2C(=O)N1/N=C/C=C/c1ccc(N(C)C)cc1 [Rh6GD, 2-(((1E,2E)-3-(4-(dimethylamino)phenyl)allylidene)amino)-3′,6′-bis(ethylamino)-2′,7′-dimethylspiro[isoindoline-1,9′-xanthen]-3-one]
apparent binding constant ([2]; 2:1 sensor-Fe^2+ complex, absorption titration, H2O/THF pH 7.3 v/v 4:1): 1.8×10^11 M^−2 | pH range over which sensor (and Fe complex) fluorescence is stable / working pH range [1]: 9.3 to 4.5

CCN(CC)c1ccc2c(c1)OC1=C(CCC/C1=C\C=C1\N(C)c3ccccc3C1(C)C)C21c2ccccc2C(=O)N1/N=C\C=C\c1ccc(N(C)C)cc1 (stereo not shown) [NIRh-Fret, (E)-6′-(diethylamino)-2-(((1Z,2E)-3-(4-(dimethylamino)phenyl)allylidene)amino)-4′-(2-((E)-1,3,3-trimethylindolin-2-ylidene)ethylidene)-1′,2′,3′,4′-tetrahydrospiro[isoindoline-1,9′-xanthen]-3-one]
binding constant [2]: 2.9e+06 M⁻¹ | solubility [3]: limited solubility | pH range over which sensor (and Fe complex) fluorescence is stable / working pH range [1]: ≥ 4.5
